Tests used:
[1] = molecular target: T1, truncated SirT6 (deletion of N terminal 17 amino acids) (Homo sapiens, UniProt Q8N6T7); assay: Deacetylation rate of truncated SirT6 with suramin or single stranded DNA; assay type: biochemical; conditions: 50 μM suramin or 100 ng/μl single stranded DNA; 800 μM NAD, 480 μM H3, 10 μM enzyme
T1 construct: The truncated SIRT6 was cloned similarly with the full length SIRT6; poly-histidine (pET28a) (N); made in house; host or cells: E. coli BL21 Codon-plus RIPL
Source text: The deacetylation rate of different truncated SirT6 was normalized to the rate of full length SirT6 for the comparison.
The truncated SIRT6 was cloned similarly with the full length SIRT6. The primers used in the cloning of different truncated SIRT6 are the following: SIRT6Δ2-7 Forward 5′ GCTAGC ATGGGGCTGTCGCCGTACGCG 3′ (SEQ ID NO: 4); SIRT6Δ2-12 Forward 5′ GCTAGC ATG […] 3′ (SEQ ID NO: 5); SIRT6Δ2-18 Forward 5′ GCTAGC ATGGGCCTCCCGGAGATCTTCGAC 3′ (SEQ ID NO: 6); SIRT6Δ2-51 Forward 5′ 5′ GCTAGC ATGACGGGTGCCGGCATCAGCACT 3′ (SEQ ID NO: 7). The common reverse primer is 5′[…] 3′ (SEQ ID NO: 8). The truncated SIRT6 was amplified by PCR reaction. The PCR product was then ligated into pSTblue-1 (Novagen). After digestion with NheI and BamHI, the fragment containing SIRT6 gene was ligated into pET28a vector (Novagen). The SIRT6 truncated sequence in pET28a plasmid was confirmed by DNA sequencing, and the plasmid was then transformed into BL21Codon-plus RIPL cells (Stratagene). The protein expression and purification were the same as the full length SIRT6 as described above.

SirT1 = molecular target: T2, SirT1 (Homo sapiens, UniProt Q96EB6); assay: SirT1 deacetylation, Km of H3 with and without ssDNA; assay type: biochemical; conditions: 100 ng/μl ssDNA
T2 sequence (Q96EB6 1-747): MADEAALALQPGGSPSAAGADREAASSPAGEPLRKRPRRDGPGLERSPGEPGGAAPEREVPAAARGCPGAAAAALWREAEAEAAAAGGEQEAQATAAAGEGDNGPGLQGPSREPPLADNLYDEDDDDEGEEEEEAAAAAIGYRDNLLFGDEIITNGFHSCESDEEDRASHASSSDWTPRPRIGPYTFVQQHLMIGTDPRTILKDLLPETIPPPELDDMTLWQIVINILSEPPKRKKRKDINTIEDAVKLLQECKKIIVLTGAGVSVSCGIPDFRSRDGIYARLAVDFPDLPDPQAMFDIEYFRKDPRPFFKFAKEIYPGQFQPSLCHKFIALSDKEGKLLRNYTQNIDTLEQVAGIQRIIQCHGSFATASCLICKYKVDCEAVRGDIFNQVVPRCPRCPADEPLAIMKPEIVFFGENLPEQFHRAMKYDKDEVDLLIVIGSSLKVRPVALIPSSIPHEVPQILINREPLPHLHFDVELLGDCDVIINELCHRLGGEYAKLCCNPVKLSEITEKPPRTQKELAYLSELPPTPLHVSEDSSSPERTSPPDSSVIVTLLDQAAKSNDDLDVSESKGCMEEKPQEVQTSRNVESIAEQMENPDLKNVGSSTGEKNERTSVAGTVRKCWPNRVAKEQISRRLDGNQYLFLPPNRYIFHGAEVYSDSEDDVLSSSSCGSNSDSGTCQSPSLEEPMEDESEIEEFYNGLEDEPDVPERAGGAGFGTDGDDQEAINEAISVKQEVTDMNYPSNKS
Source text: The quantified data were fit into Michaelis-Menten equation to get Km of H3.

T1 sequence (Q8N6T7 with tags, fused parts or gaps): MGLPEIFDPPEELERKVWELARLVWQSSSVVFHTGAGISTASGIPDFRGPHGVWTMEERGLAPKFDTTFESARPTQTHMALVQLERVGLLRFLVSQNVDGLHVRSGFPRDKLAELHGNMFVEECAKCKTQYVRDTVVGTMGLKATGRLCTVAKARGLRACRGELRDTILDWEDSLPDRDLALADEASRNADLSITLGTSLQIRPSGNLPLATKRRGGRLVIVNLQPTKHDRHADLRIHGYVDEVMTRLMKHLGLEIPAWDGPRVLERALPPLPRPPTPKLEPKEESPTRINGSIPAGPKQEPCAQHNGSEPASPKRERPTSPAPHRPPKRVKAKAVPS

ssDNA: ssDNA 5′ GGGGATCCATGAAGATGAGCTTTGCGTTGACT 3′ (SEQ ID NO: 9), Integrated DNA Technologies (DNA, backbone and methylation of C not given here)
Activation of truncated SirT6 deacetylation [1]: lost of activation
Deacetylation activity of SirT1 (SirT1): not activated

Reference: patent US9322049B2, “Activation and activators of SirT6” (CORNELL UNIVERSITY, priority 2009, dated 2016)
